Measured values from patent US5763405A, “Stabilized composition for oral administration of peptides” (Ferring B.V., priority 1994, dated 1998).

Details: pH 6.5
Procedure: A tube was introduced intranasally after local anaesthesia with xylocaine, and gastric juice was collected. Thereafter one standardized meal was given 1 h before sampling of duodenal and distal jejunum juice and another the next morning before the collection of distal ileal juice. After centrifugation the gastric and intestinal juices were frozen in aliquots of 1 ml and stored at -20° C. Degradation method. The peptide or peptide analog (10 μl of 10 mM peptide in 0.9% aqueous NaCl) was added to 190 μl of undiluted juice at 370° C. Aliquots of 25 μl were withdrawn at intervals and mixed with 100 μl acetone to stop the reaction. After centrifugation for 10 min at 10,000 g, 10 μl of the supernatiant was analyzed by reversed phase HPLC. Determination of peptide degradation. Analysis was carried out in a Varian 5000 HPLC analyzer equipped with a UV-detector (220 nm). Column Bondapak TM C18 (3.9×300 mm), eluant MeOH/0.025M NH4 Ac (isocratic conditions), flow rate 1 ml/min. Protein and pH determination. Protein: Bio-Rad protein assay. pH: Orion model SA720; pH-paper Merck (Darmstadt), range 4.0-7.0.

- DDAVP degraded (to about 50%): about 50%
SMILES: NC(=O)CC[C@@H]1NC(=O)[C@H](Cc2ccccc2)NC(=O)[C@H](Cc2ccc(O)cc2)NC(=O)CCSSC[C@@H](C(=O)N2CCC[C@H]2C(=O)N[C@H](CCCN=C(N)N)C(=O)NCC(N)=O)NC(=O)[C@H](CC(N)=O)NC1=O [DDAVP, Mpa--Tyr--Phe--Gln--Asn--Cys--Pro--D--Arg--Gly--GlyNH2 (SEQ ID NO: 3)]
